US20260327198A1, “2-DIARYLMETHYL-4-AMINOTETRAHYDROPYRAN SULFONIMIDAMIDES AS ANTICANCER, ANTIINFLAMMATORY, ANTIFIBROTIC AND NEUROPROTECTIVE AGENTS” (Atux Iskay LLC, priority 2022, published 2026)

Columns and labels:
[1] = test system: phosphatase activity in ApoE transfected A172 glioblastoma cells; experiment: Cellular in vitro phosphatase activation assay (Malachite Green, ApoE cDNA transfected A172 cells); type: cell-based; conditions: Homo sapiens, A 172, A172 glioblastoma cells transfected with ApoE cDNA, 24 hours, n = 3, read-out: % increase from ApoE transfected cell at 5 μM test compound concentration
Experimental: Cellular in vitro phosphatase activation assay was performed using the method of Theendakara et al, Molecular and Cellular Neuroscience, 83 (2017), pages 83-91 which is described below:
A172 glioblastoma cells were cultured in Dulbecco's modified Eagle's medium (DMEM) supplemented with 10% fetal bovine serum and 1% Penicillin-streptomycin. Incubation was performed at 37° C. and 5% CO2.
A172 cells were seeded at 5×10^5 cells/2.5 ml growth medium (without antibiotics) per well on 6-well tissue culture plates. Cells were incubated overnight to allow them to recover and reattach. […]
After 24 hrs, cells were washed twice with imidazole buffer and lysed using NP-40 Lysis buffer. […] The amount of phosphate release in the assay was determined by measuring absorbance at 620 nm using the Spectramax i3x plate reader.
The absorbance intensity data were analyzed using the computer software Graphpad Prism. The phosphate concentration for each sample was determined from the standard curve using phosphate standard concentrations. In order to compare samples, the first set (column A) were there was no transfection performed and no compound added, was designated a baseline; the absorbance measurement in this column was set as 100% phosphatase activity.

[2] = test system: D425 medulloblastoma cells; experiment: D425 medulloblastoma cell viability / growth inhibition (CellTiter-Glo); type: cell-based; conditions: n = 3, 0.1% DMSO
Experimental: D425 medulloblastoma cells were purchased from SigmaAldrich. D425 meduloblastoma cells were cultured in improved Dulbecco's modified Eagle's medium (DMEM) Richter's modification supplemented with 20% fetal bovine serum and 1% Penicillin-streptomycin. Incubation was performed at 37° C. and 5% CO2.
D425 cells were seeded at 3000-3500 cells/90 μL growth medium per well on 96-well tissue culture plates. Cells were incubated overnight to allow them to recover. Next day cells were treated with tested compounds and incubated for 48 hours.
Cell Proliferation assays in triplicate were performed at each concentration. Compounds test range was 1-30 μM (0, 5, 10, 15, 20, 25, and 30). The compounds were dissolved in DMSO. A series of dilutions were made in 1% DMSO in growth medium so that the final concentration of DMSO is 0.1% in all of treatments.
After treatment, cells were allowed to equilibrate at room temperature for one hour. Cell proliferation was measured by Luminescence quantification using Promega CellTiter-Glo Luminescent Cell Viability Assay. To perform the assay, 90 μL of Celltiter-Glo substrate was added to each well, plates were shake for 2 minutes and allowed to equilibrate for 10 minutes at room temperature. Luminescence intensity was measured using the Spectramax i3x plate reader.
The Luminescence intensity data were analyzed using the computer software Graphpad Prism. In the absence of the compound, the luminescence intensity (Lt) in each data set was defined as 100% cell viability. The percent cell in the presence of each compound was calculated according to the following equation: % Cell=L/Lt, were L=the luminescence intensity in the presence of the compound.
The values of % cell versus a series of compound concentrations (0, 5, 10, 15, 20, 25, and 30 μM) were then plotted using Nonlinear regression analysis of Sigmoidal dose-response curve. IC50 value was determined by the concentration causing a half-maximal percent activity.

[3] = test system: mouse models of allergic airway disease; conditions: small molecule activators of PP2A; cited from earlier work

Compound	IC50 ([2]; Medulloblastoma cell, 48 h) [µM]	IC50 ([2]; 48 hours) [µM]	development of inflammation, airway hyperreactivity in mouse models of allergic airway disease [3]	further results
N=S(=O)(N[C@H]1CCOC(C2c3ccccc3CCc3ccccc32)C1)c1ccc(OC(F)(F)F)cc1 (single isomer, unassigned) [Example 3]	8.3			activation at 5 µM [1]: 22%
CCCCCCCCc1ccc(CCC(N)(CO)CO)cc1 [fingolimod]			inhibited the development of inflammation, airway hyperreactivity	
N=S(=O)(N[C@H]1CCOC(C2c3ccccc3CCc3ccccc32)C1)c1ccc(OC(F)(F)F)cc1 (single isomer, unassigned) [Example 4]		9.5		
CCCCCCCOc1ccc(CCC(C)(N)CO)cc1 [AAL(S), 2-amino-4-(4-(heptyloxy)phenyl)-2-methylbutan-1-ol]			inhibited the development of inflammation, airway hyperreactivity	

Further lines, with some results ahead:

IC50 ([2]; Medulloblastoma cell, 48 h) [µM]	IC50 ([2]; 48 hours) [µM]	Compound	development of inflammation, airway hyperreactivity in mouse models of allergic airway disease [3]	further results
14.3		N=S(=O)(N[C@H]1CCO[C@@H](C(c2ccc(F)cc2)c2ccc(F)cc2)C1)c1ccc(OC(F)(F)F)cc1 (single isomer, unassigned) [Example 7-isomer1]		
	10.4	N=S(=O)(N[C@H]1CCO[C@@H](C(c2ccc(F)cc2)c2ccc(F)cc2)C1)c1ccc(OC(F)(F)F)cc1 (single isomer, unassigned) [Example 7-isomer2]		
